Data taken from ChEMBL document CHEMBL5385916, “Discovery of a novel series of pyridone amides as NaV1.8 inhibitors” (Bioorg Med Chem Lett, 2024).
The source made the active and inactive calls. The calls are words filed in the database; no cut-off is given here.

How the values were obtained:
[1] = target: T1, Sodium channel protein type 10 subunit alpha (Homo sapiens, UniProt Q9Y5Y9); assay: Binding affinity to Nav1.8 (unknown origin) expressed in HEK293T cells assessed as retention time by cell membrane chromatography analysis; type: cell membranes
Target sequence in this assay (Q9Y5Y9 whole entry, looked up): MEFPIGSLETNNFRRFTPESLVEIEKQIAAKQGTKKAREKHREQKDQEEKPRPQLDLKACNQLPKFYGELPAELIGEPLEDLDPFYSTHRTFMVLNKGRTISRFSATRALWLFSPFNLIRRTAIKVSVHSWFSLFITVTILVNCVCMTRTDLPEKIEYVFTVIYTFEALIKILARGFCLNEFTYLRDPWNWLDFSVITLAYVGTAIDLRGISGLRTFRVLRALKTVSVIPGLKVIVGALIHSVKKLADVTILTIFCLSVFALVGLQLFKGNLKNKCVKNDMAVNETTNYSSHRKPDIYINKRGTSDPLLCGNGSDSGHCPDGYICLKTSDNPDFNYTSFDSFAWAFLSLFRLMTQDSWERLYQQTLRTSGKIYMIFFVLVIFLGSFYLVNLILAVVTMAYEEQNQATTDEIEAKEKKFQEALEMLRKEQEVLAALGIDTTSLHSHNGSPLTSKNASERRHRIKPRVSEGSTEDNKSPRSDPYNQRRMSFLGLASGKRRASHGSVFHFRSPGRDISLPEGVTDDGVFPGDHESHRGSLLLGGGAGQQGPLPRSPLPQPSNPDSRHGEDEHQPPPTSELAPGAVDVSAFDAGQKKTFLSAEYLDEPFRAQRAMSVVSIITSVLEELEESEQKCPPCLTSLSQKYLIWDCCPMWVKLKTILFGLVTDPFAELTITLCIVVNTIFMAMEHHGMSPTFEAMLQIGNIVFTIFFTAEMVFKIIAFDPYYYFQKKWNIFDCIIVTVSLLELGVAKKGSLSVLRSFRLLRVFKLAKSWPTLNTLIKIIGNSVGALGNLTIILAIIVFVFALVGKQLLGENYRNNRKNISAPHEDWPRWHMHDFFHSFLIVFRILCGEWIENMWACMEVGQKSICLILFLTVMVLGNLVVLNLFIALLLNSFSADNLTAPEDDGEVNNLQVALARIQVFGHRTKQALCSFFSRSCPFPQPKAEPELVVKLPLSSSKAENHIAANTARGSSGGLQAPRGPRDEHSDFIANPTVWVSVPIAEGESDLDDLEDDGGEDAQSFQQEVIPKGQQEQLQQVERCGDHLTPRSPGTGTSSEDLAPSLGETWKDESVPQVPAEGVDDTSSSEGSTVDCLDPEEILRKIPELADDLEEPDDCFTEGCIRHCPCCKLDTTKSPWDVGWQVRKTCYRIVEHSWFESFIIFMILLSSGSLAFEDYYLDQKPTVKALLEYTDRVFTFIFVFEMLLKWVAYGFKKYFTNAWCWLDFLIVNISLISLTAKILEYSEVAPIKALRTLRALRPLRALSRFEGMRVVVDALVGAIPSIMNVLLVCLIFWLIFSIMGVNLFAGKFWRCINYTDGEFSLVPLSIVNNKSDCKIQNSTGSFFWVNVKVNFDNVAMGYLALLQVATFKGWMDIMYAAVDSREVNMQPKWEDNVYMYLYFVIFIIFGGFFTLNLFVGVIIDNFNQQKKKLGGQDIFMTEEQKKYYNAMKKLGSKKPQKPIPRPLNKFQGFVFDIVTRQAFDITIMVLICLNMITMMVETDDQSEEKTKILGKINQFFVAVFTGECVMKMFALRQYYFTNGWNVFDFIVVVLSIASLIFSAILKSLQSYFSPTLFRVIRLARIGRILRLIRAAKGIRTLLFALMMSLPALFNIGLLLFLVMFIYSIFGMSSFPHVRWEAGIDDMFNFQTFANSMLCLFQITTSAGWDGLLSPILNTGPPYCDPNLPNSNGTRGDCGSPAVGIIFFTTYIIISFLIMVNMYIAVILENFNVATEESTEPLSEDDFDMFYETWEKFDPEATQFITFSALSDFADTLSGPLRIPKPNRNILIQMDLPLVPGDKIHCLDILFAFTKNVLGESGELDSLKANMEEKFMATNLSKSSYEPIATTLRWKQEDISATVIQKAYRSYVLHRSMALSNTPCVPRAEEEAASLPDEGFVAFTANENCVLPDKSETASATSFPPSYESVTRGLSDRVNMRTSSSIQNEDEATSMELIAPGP

[2] = target: Sodium channel protein type 5 subunit alpha (Homo sapiens, UniProt Q14524); assay: Binding affinity to Nav1.5 (unknown origin) expressed in HEK293T cells assessed as retention time by cell membrane chromatography analysis; type: cell membranes
Sequence of Sodium channel protein type 5 subunit alpha (Q14524 whole entry): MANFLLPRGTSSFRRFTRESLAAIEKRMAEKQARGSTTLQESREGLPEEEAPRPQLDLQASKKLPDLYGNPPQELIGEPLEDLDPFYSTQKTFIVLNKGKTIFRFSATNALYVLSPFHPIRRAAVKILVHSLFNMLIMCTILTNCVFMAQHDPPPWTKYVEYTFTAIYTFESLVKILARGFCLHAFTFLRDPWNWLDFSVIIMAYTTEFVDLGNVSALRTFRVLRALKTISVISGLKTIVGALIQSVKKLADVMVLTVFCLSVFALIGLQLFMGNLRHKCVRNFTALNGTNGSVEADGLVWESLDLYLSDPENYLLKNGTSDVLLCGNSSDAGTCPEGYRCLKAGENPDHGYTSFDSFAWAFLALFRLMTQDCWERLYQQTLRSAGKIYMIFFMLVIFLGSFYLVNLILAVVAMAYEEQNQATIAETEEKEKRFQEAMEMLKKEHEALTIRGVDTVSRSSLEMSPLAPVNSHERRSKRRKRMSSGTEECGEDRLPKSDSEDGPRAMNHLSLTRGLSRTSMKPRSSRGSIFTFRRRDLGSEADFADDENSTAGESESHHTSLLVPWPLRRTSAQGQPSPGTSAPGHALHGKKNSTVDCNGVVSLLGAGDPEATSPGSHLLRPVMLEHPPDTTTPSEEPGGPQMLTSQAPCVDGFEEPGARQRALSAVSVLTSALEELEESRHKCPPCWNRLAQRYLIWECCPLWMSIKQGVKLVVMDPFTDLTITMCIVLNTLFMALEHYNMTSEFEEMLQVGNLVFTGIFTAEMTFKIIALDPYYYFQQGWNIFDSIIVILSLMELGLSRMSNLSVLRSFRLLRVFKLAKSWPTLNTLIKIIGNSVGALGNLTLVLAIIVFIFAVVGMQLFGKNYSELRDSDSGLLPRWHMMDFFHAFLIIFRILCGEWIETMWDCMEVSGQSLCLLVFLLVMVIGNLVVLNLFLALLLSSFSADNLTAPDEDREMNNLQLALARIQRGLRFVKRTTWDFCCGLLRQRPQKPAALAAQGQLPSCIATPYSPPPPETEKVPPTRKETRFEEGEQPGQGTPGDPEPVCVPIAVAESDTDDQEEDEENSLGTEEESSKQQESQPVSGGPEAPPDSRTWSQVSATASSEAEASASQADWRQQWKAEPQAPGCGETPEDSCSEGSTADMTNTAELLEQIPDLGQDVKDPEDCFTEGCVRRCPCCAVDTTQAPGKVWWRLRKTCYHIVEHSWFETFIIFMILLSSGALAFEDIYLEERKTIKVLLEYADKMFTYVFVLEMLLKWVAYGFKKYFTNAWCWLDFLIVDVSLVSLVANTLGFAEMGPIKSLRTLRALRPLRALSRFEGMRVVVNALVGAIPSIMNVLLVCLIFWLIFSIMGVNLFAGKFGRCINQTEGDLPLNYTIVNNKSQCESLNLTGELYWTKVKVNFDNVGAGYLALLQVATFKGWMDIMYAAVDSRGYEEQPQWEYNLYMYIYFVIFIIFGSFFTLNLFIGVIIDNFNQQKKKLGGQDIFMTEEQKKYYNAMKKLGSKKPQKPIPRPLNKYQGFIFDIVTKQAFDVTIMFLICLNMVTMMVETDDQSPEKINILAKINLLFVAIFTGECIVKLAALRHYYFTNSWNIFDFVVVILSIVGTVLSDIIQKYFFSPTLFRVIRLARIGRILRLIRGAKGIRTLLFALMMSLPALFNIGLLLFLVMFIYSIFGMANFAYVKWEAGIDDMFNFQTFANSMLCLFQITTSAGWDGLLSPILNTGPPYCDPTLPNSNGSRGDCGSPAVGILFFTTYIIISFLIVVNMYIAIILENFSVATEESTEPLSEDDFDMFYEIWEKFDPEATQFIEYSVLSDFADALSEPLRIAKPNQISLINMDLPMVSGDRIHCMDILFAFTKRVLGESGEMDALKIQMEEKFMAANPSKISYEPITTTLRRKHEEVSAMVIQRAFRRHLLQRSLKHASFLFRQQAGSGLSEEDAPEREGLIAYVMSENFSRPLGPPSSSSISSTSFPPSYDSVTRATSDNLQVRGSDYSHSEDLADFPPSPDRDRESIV

[3] = Selectivity ratio of binding affinity to Nav1.8 (unknown origin) expressed in HEK293T cells assessed as retention time to binding affinity to Nav1.5 (unknown origin) expressed in HEK293T cells assessed as retention time; type: cell-based
[4] = tested on: Mus musculus; assay: Analgesic activity in CFA-induced inflammatory pain mouse model assessed as paw withdrawal response to von frey stimuli at 100 microg/kg, ip; type: functional, organism-based; settings: dose 100.0 µg/kg
[5] = target: T1, Sodium channel protein type 10 subunit alpha; assay: Inhibition of Nav1.8 (unknown origin) at 10 uM under resting state by whole-cell patch clamp analysis relative to control
Target sequence in this assay (Q9Y5Y9 whole entry, looked up): as the sequence (Q9Y5Y9 whole entry, looked up) above

[6] = target: T1, Sodium channel protein type 10 subunit alpha; assay: Inhibition of Nav1.8 (unknown origin) at 10 uM under half inaction state by whole-cell patch clamp analysis relative to control
Target sequence in this assay (Q9Y5Y9 whole entry, looked up): as above

[7] = tested on: Mus musculus; assay: Analgesic activity in CFA-induced inflammatory pain mouse model assessed as paw withdrawal response to von frey stimuli at 100 microg/kg, ip measured for 5 hrs; type: functional, organism-based; settings: dose 100.0 µg/kg
[8] = tested on: Mus musculus; assay: Analgesic activity in CFA-induced inflammatory pain mouse model assessed as paw withdrawal response to von frey stimuli at 100 microg/kg, ip measured for 9 hrs; type: functional, organism-based; settings: dose 100.0 µg/kg
[9] = target: T1, Sodium channel protein type 10 subunit alpha; assay: Inhibition of Nav1.8 in HEK293 cells under resting state; type: cell-based
[10] = target: T1, Sodium channel protein type 10 subunit alpha; assay: Inhibition of Nav1.8 in HEK293 cells under half inaction state; type: cell-based
[11] = tested on: Mus musculus; assay: Analgesic activity in chronic constriction injury mouse model assessed as paw withdrawal response to von frey stimuli at 100 microg/kg, ip administered for 8 days and measured upto 9 hrs; type: functional, organism-based; settings: dose 100.0 µg/kg, time <= 201.0 hrs
[12] = Toxicity in mouse assessed as adverse effects at 100 microg/kg, ip administered for 8 days and measured upto 9 hrs; type: organism-based; settings: in vivo, 0.1 mg/kg, 201 h, dose 100 µg/kg
[13] = tested on: Mus musculus; assay: Analgesic activity in chronic constriction injury mouse model assessed as fold increase in AUC at 100 microg/kg, ip administered for 8 days relative to model group; type: functional; settings: dose 100 µg/kg, time 8 day
[14] = tested on: Mus musculus; assay: Analgesic activity in chronic constriction injury mouse model at 100 microg/kg, ip administered for 10 to 14 days; type: functional, organism-based; settings: dose 100.0 µg/kg, time 10-14 day
[15] = tested on: Mus musculus; assay: Analgesic activity in cold pain hypersensitivity mouse model at 100 microg/kg, ip measured for 8 days; type: functional, organism-based; settings: dose 100.0 µg/kg, time 8.0 day
[16] = tested on: Mus musculus; assay: Analgesic activity in CFA-induced inflammatory pain mouse model assessed as paw withdrawal response to von frey stimuli at 100 microg/kg, po administered for 8 days and measured upto 7 hrs; type: functional, organism-based; settings: dose 100.0 µg/kg, time <= 199.0 hrs

Question: For `COc1cc(NC(=O)c2ccc([N+](=O)[O-])cc2Oc2ccc(F)cc2C)ccn1`, which Retention time [1] is on record?
Answer: The Retention time was 4.6 min.

Question: And the Retention_time [2]?
Answer: Its Retention_time is 4.6 min.

Question: And the Selectivity ratio [3]?
Answer: Its Selectivity ratio is 0.62.

Question: With `Cc1cc(F)ccc1Oc1cc(C(F)(F)F)ccc1C(=O)Nc1ccncc1` as the compound, how does the Retention time [1] read?
Answer: The Retention time was 30 min.

Question: What about the Retention_time [2] of the same compound?
Answer: Its Retention_time is 3 min.

Question: And the Selectivity ratio [3]?
Answer: The Selectivity ratio was 10.

Question: And the Activity [4]?
Answer: The Activity was “Active”.

Question: With `O=C(Nc1cc[nH]c(=O)c1)c1ccc(C(F)(F)F)cc1OC1CC=CC1` as the compound, how does the Retention time [1] read?
Answer: Its Retention time is 10.1 min.

Question: What about the Retention_time [2] of the same compound?
Answer: Its Retention_time is 16.4 min.

Question: And the Selectivity ratio [3]?
Answer: The Selectivity ratio was 0.61.

Question: Which Retention time [1] does the source give for `CN1CCN(c2cc(C(F)(F)F)ccc2C(=O)Nc2cc[nH]c(=O)c2)CC1` here?
Answer: Its Retention time is 53.8 min.

Question: And the Retention_time [2]?
Answer: The Retention_time was 1.3 min.

Question: And the Selectivity ratio [3]?
Answer: The Selectivity ratio was 41.4.

Question: What about the Activity [4] of the same compound?
Answer: Its Activity is “Active”.

Question: For `Cc1cc(F)ccc1Oc1cc(C(F)(F)F)ccc1C(=O)Nc1cccc(O)c1`, which Retention time [1] is on record?
Answer: Its Retention time is 36.5 min.

Question: What about the Retention_time [2] of the same compound?
Answer: The Retention_time was 7.1 min.

Question: And the Selectivity ratio [3]?
Answer: Its Selectivity ratio is 5.14.

Question: With `Cc1cc(F)ccc1Oc1cc(C(F)(F)F)ccc1C(=O)Nc1cc[nH]c(=O)c1` as the compound, how does the Retention time [1] read?
Answer: Its Retention time is 11.8 min.

Question: What about the Retention_time [2] of the same compound?
Answer: The Retention_time was 20.6 min.

Question: And the Selectivity ratio [3]?
Answer: The Selectivity ratio was 0.57.

Question: Which Retention time [1] does the source give for `O=C(Nc1cc[nH]c(=O)c1)c1ccc(C(F)(F)F)cc1Oc1ccc(F)nc1` here?
Answer: Its Retention time is 2.4 min.

Question: And the Retention_time [2]?
Answer: Its Retention_time is 2.6 min.

Question: What about the Selectivity ratio [3] of the same compound?
Answer: Its Selectivity ratio is 0.92.

Question: What does the source list for `Cc1cc(F)ccc1Oc1cc(C(F)(F)F)ccc1C(=O)NCc1ccccc1`?
Answer: Retention time [1]: 56.1 min; Retention_time [2]: > 60 min; Selectivity ratio [3]: 0.94

Question: Which Retention time [1] does the source give for `Cc1cc(F)ccc1Oc1cc(C(F)(F)F)ccc1C(=O)Nc1ccccc1` here?
Answer: Its Retention time is 5.8 min.

Question: What about the Retention_time [2] of the same compound?
Answer: Its Retention_time is 7.3 min.

Question: What about the Selectivity ratio [3] of the same compound?
Answer: The Selectivity ratio was 0.79.

Question: Which Retention time [1] does the source give for `O=C(Nc1cc[nH]c(=O)c1)c1ccc(C(F)(F)F)cc1Oc1ccccc1` here?
Answer: The Retention time was 4.7 min.

Question: What about the Retention_time [2] of the same compound?
Answer: Its Retention_time is 8.6 min.

Question: And the Selectivity ratio [3]?
Answer: Its Selectivity ratio is 0.55.

Question: With `Cc1cc(F)ccc1Oc1cc(C(F)(F)F)ccc1C(=O)Nc1ccc2cc[nH]c2c1` as the compound, how does the Retention time [1] read?
Answer: Its Retention time is > 60 min.

Question: What about the Retention_time [2] of the same compound?
Answer: The Retention_time was > 60 min.

Question: And the Selectivity ratio [3]?
Answer: The Selectivity ratio was 1.

Question: What about the inhibition [5] of the same compound?
Answer: The inhibition was -0.26%.

Question: And the inhibition [6]?
Answer: Its inhibition is 1.55%.

Question: What about the Activity [4] of the same compound?
Answer: Its Activity is “Active”.

Question: With `O=C(Nc1cc[nH]c(=O)c1)c1ccc(C(F)(F)F)cc1Oc1ccncc1` as the compound, how does the Retention time [1] read?
Answer: Its Retention time is 1.6 min.

Question: What about the Retention_time [2] of the same compound?
Answer: The Retention_time was 1.7 min.

Question: And the Selectivity ratio [3]?
Answer: Its Selectivity ratio is 0.94.

Question: For `Cc1cc(F)ccc1Oc1cc([N+](=O)[O-])ccc1C(=O)Nc1cc[nH]c(=O)c1`, which Retention time [1] is on record?
Answer: The Retention time was 4.5 min.

Question: What about the Retention_time [2] of the same compound?
Answer: The Retention_time was 4.5 min.

Question: And the Selectivity ratio [3]?
Answer: Its Selectivity ratio is 0.52.

Question: Which results are given for `O=C(Nc1cc[nH]c(=O)c1)c1ccc(C(F)(F)F)cc1OC1CCC(F)(F)CC1`?
Answer: Retention time [1]: 3.8 min; Retention_time [2]: 5.8 min; Selectivity ratio [3]: 0.66

Question: What does the source list for `O=C(Nc1cc[nH]c(=O)c1)c1ccc(C(F)(F)F)cc1Sc1ccc(F)cc1`?
Answer: Retention time [1]: 9.2 min; Retention_time [2]: 16.1 min; Selectivity ratio [3]: 0.57; inhibition [5]: 87.5%; inhibition [6]: 88.8%; Activity [4]: Active; Activity [7]: Active; Activity [8]: Active

Question: Which results are given for `COc1cc(NC(=O)c2ccc(C(F)(F)F)cc2Oc2ccc(F)cc2C)ccn1`?
Answer: Retention time [1]: 6.1 min; Retention_time [2]: 17.8 min; Selectivity ratio [3]: 0.34

Question: Which results are given for `Cc1cc(F)ccc1Oc1cc(C(F)(F)F)ccc1C(=O)NCc1cc[nH]c(=O)c1`?
Answer: Retention time [1]: 6 min; Retention_time [2]: 9.1 min; Selectivity ratio [3]: 0.66

Question: Which Retention time [1] does the source give for `COc1cccc(NC(=O)c2ccc(C(F)(F)F)cc2Oc2ccc(F)cc2C)c1` here?
Answer: The Retention time was 4.6 min.

Question: And the Retention_time [2]?
Answer: The Retention_time was 7.3 min.

Question: And the Selectivity ratio [3]?
Answer: The Selectivity ratio was 0.63.

Question: With `O=C(Nc1cc[nH]c(=O)c1)c1ccc(C(F)(F)F)cc1N1CCC(C(F)(F)F)CC1` as the compound, how does the Retention time [1] read?
Answer: Its Retention time is 10.5 min.

Question: What about the Retention_time [2] of the same compound?
Answer: Its Retention_time is 11.7 min.

Question: And the Selectivity ratio [3]?
Answer: Its Selectivity ratio is 0.9.

Question: What about the inhibition [5] of the same compound?
Answer: Its inhibition is 93.4%.

Question: And the inhibition [6]?
Answer: Its inhibition is 92.2%.

Question: What about the Activity [4] of the same compound?
Answer: Its Activity is “Active”.

Question: What about the Activity [7] of the same compound?
Answer: Its Activity is “Active”.

Question: What about the Activity [8] of the same compound?
Answer: The Activity was “Active”.

Question: What about the IC50 [9] of the same compound?
Answer: The IC50 was 513 nM.

Question: And the inhibition ([9]; dose 0.1-10 µM)?
Answer: The inhibition was “Dose-Dependent Effect”.

Question: And the IC50 [10]?
Answer: Its IC50 is 472 nM.

Question: What about the inhibition ([10]; dose 0.1-10 µM) of the same compound?
Answer: The inhibition was “Dose-Dependent Effect”.

Question: What about the Activity [11] of the same compound?
Answer: The Activity was “Active”.

Question: What about the Activity [12] of the same compound?
Answer: The Activity was “Non-Toxic”.

Question: What about the “fold change (FC)” value [13] of the same compound?
Answer: The value was 2.

Question: What about the Activity [14] of the same compound?
Answer: The Activity was “Active”.

Question: What about the Activity [15] of the same compound?
Answer: The Activity was “Active”.

Question: What about the Activity [16] of the same compound?
Answer: Its Activity is “Active”.

Question: Which results are given for `COc1cc(NC(=O)c2ncc(C(F)(F)F)cc2Oc2ccc(F)cc2C)ccn1`?
Answer: Retention time [1]: 22 min; Retention_time [2]: 12.3 min; Selectivity ratio [3]: 1.79; inhibition [5]: 82.5%; inhibition [6]: 84.5%; Activity [4]: Active; Activity [7]: Active; Activity [8]: Active
